In patent publication US20240217978A1 (CHONG KUN DANG PHARMACEUTICAL CORP., priority 2021, published 2024):

target: human adenosine A2a receptor (Homo sapiens (Human), UniProt P29274); assay: A2a receptor binding affinity, [3H]-NECA radioligand binding test; details: [3H]-NECA 37 nM; membrane from HEK-293 cells transfected with human adenosine A2a receptor
Procedure: The binding affinity of the compounds according to Examples of the present invention to the human adenosine A2a receptor was evaluated by entrusting SB drug discovery in the UK.
A radioligand binding test was conducted by using [3H]-NECA (5′-N-[adenine-2,8-3H]-ethylcarboxamidoadenosine) and an adenosine A2a membrane. As the adenosine A2a membrane, a cell membrane prepared from HEK-293 cells transfected with human adenosine A2a receptor was used. The membrane used for the test was prepared by incubating with a radioligand until equilibrium was reached. In order to separate the radioligand-bound membrane, the unbound radioligand was separated by using Packard filtermate Harverster and glass filter plates.
10 μL of test compound dissolved in binding buffer (50 mM Tris, 10 mM MgCl2, 1 mM EDTA pH 7.4) and 20 μL of [3H]-NECA (final concentration of 37 nM) or reference inhibitor was mixed with 20 μL of A2a membrane in an unbound 96-well plate and incubated at room temperature for one hour. Prior to filtration, a 96-well harvest filter plate was coated with 0.33% polyethylenimine for 30 minutes and then washed with assay buffer. The binding reaction was transferred to the filter plate and washed three times with wash buffer. The dish was then dried, scintillant was added, and radioactivity was counted in a scintillation counter (Topcount NXT, Packard).
The binding affinity IC50 (μM) for the human adenosine A2a receptor obtained according to the above experimental method is shown in the table below.

Chain of human adenosine A2a receptor (P29274 whole entry): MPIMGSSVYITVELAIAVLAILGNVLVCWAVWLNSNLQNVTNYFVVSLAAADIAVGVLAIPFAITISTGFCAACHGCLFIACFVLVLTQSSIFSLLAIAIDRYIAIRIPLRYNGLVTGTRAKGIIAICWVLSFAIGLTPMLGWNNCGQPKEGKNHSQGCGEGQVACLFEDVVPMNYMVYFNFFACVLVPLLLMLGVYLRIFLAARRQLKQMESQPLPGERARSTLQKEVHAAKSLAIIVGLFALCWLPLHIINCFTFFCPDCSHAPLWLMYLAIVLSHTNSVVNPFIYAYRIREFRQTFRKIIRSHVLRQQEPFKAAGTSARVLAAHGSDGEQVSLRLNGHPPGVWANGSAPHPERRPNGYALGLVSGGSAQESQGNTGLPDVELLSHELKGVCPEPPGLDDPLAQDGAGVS

First: CN1CCN(c2cccc(C(=O)N3CCN(C(=O)[C@@H]4CCCN4c4nc(N)n5nc(-c6ccco6)nc5n4)CC3)c2)CC1 [Example 82, (4-((7-amino-2-(furan-2-yl)-[1,2,4]triazolo[1,5-a][1,3,5]triazin-5-yl)-L-prolyl)piperazin-1-yl)(3-(4-methylpiperazin-1-yl)phenyl)methanone]
Second: Cn1cnc(C(=O)N2CCN(C(=O)[C@@H]3CCCN3c3nc(N)n4nc(-c5ccco5)nc4n3)CC2)c1 [Example 102]
The IC50 of the first is 1.7-fold lower: 6 nM for the first, 10 nM for the second. The first is the more potent here.

Going from `Nc1nc(N2CCC[C@H]2C(=O)N2CCN(c3ccccc3C(F)(F)F)CC2)nc2nc(-c3ccco3)nn12` [Example 150, (S)-(1-(7-amino-2-(furan-2-yl)-[1,2,4]triazolo[1,5-a][1,3,5]triazin-5-yl)pyrrolidin-2-yl)(4-(2-(trifluoromethyl)phenyl)piperazin-1-yl)methanone] to `Nc1nc(N2CCC[C@H]2C(=O)N2CCN(c3ccc(F)cc3F)CC2)nc2nc(-c3ccco3)nn12` [Example 12, (S)-(1-(7-amino-2-(furan-2-yl)-[1,2,4]triazolo[1,5-a][1,3,5]triazin-5-yl)pyrrolidin-2-yl)(4-(2,4-difluorophenyl)piperazin-1-yl)methanone], the IC50 rises from 0.1 nM to 1.43 nM (14-fold).

Compared with `CC1(C)C[C@@H](C(=O)N2CCN(CC(F)(F)F)CC2)N(c2nc(N)n3nc(-c4ccco4)nc3n2)C1` [Example 387, (S)-(1-(7-amino-2-(furan-2-yl)-[1,2,4]triazolo[1,5-a][1,3,5]triazin-5-yl)-4,4-dimethylpyrrolidin-2-yl)(4-(2,2,2-trifluoroethyl)piperazin-1-yl)methanone], `CC(F)(F)CN1CCN(C(=O)[C@@H]2CCN2c2nc(N)n3nc(-c4ccco4)nc3n2)CC1` [Example 253, (S)-(1-(7-amino-2-(furan-2-yl)-[1,2,4]triazolo[1,5-a][1,3,5]triazin-5-yl)azetidin-2-yl)(4-(2,2-difluoropropyl)piperazin-1-yl)methanone] is 7-fold higher in IC50: 1 nM for the first, 7 nM for the second.

`Nc1nc(N2CCCN2C(=O)N2CCN(CC(F)(F)F)CC2)nc2nc(-c3ccco3)nn12` [Example 353, (2-(7-amino-2-(furan-2-yl)-[1,2,4]triazolo[1,5-a][1,3,5]triazin-5-yl)pyrazolidin-1-yl)(4-(2,2,2-trifluoroethyl)piperazin-1-yl)methanone] and `CC(C)(CN1CCN(C(=O)[C@@H]2CCCN2c2nc(N)n3nc(-c4ccco4)nc3n2)CC1)C(F)(F)F` [Example 282, (S)-(1-(7-amino-2-(furan-2-yl)-[1,2,4]triazolo[1,5-a][1,3,5]triazin-5-yl)pyrrolidin-2-yl)(4-(3,3,3-trifluoro-2,2-dimethylpropyl)piperazin-1-yl)methanone] are within 1.5-fold of each other in IC50: 8 nM for the first, 6 nM for the second.

First: Nc1nc(N2CCC[C@H]2C(=O)N2CC3CCC(C2)N3Cc2ccc(F)cc2F)nc2nc(-c3ccco3)nn12 [Example 50, ((S)-1-(7-amino-2-(furan-2-yl)-[1,2,4]triazolo[1,5-a][1,3,5]triazin-5-yl)pyrrolidin-2-yl)(8-(2,4-difluorobenzyl)-3,8-diazabicyclo[3.2.1]octan-3-yl)methanone]
Second: Nc1nc(N2CCC[C@H]2C(=O)N2CCN(c3ccc(F)cc3)CC2)nc2nc(-c3ccco3)nn12 [Example 121, (S)-(1-(7-amino-2-(furan-2-yl)-[1,2,4]triazolo[1,5-a][1,3,5]triazin-5-yl)pyrrolidin-2-yl)(4-(4-fluorophenyl)piperazin-1-yl)methanone]
The IC50 of the first is 1.5-fold higher: 9 nM for the first, 6 nM for the second.

Compared with `Cc1ccc(-c2nc3nc(N4CCC[C@H]4C(=O)N4CCN(c5ccccc5)C(=O)C4)nc(N)n3n2)o1` [Example 198, 4-((7-amino-2-(5-methylfuran-2-yl)-[1,2,4]triazolo[1,5-a][1,3,5]triazin-5-yl)-L-prolyl)-1-phenylpiperazin-2-one], `Cc1ccc(-c2nc3nc(N4CCC[C@H]4C(=O)N4CCN(CC(F)F)CC4)nc(N)n3n2)o1` [Example 297, (S)-(1-(7-amino-2-(5-methylfuran-2-yl)-[1,2,4]triazolo[1,5-a][1,3,5]triazin-5-yl)pyrrolidin-2-yl)(4-(2,2-difluoroethyl)piperazin-1-yl)methanone] is 1.9-fold higher in IC50: 8 nM for the first, 15 nM for the second.

Going from `Nc1nc(N2CCC[C@H]2C(=O)N2CCC(C3CCN(C(=O)Nc4ccccc4)CC3)CC2)nc2nc(-c3ccco3)nn12` [Example 184, 1′-((7-amino-2-(furan-2-yl)-[1,2,4]triazolo[1,5-a][1,3,5]triazin-5-yl)-L-prolyl)-N-phenyl-[4,4′-bipiperidine]-1-carboxamide] to `CC(C)(O)C(=O)N1CCN(C(=O)[C@@H]2CCCN2c2nc(N)n3nc(-c4ccco4)nc3n2)CC1` [Example 274, 1-(4-((7-amino-2-(furan-2-yl)-[1,2,4]triazolo[1,5-a][1,3,5]triazin-5-yl)-L-prolyl)piperazin-1-yl)-2-hydroxy-2-methylpropan-1-one], the IC50 falls from 12 nM to 8 nM (1.5-fold).

Going from `Nc1nc(N[C@H](C(=O)N2CCN(c3ccc(F)cc3F)CC2)C2CCOCC2)nc2nc(-c3ccco3)nn12` [Example 171, (S)-2-((7-amino-2-(furan-2-yl)-[1,2,4]triazolo[1,5-a][1,3,5]triazin-5-yl)amino)-1-(4-(2,4-difluorophenyl)piperazin-1-yl)-2-(tetrahydro-2H-pyran-4-yl)ethan-1-one] to `CC[C@H](Nc1nc(N)n2nc(-c3ccco3)nc2n1)C(=O)N1CCN(c2ncccn2)CC1` [Example 346, (S)-2-((7-amino-2-(furan-2-yl)-[1,2,4]triazolo[1,5-a][1,3,5]triazin-5-yl)amino)-1-(4-(pyrimidin-2-yl)piperazin-1-yl)butan-1-one], the IC50 rises from 3 nM to 8 nM (2.7-fold).

First: COCCN1CCN(C(=O)[C@@H]2CCCN2c2nc(N)n3nc(-c4ccco4)nc3n2)CC1=O [Example 246, 4-((7-amino-2-(furan-2-yl)-[1,2,4]triazolo[1,5-a][1,3,5]triazin-5-yl)-L-prolyl)-1-(2-methoxyethyl)piperazin-2-one]
Second: Cc1cnc(C(=O)N2CCN(C(=O)[C@@H]3CCCN3c3nc(N)n4nc(-c5ccco5)nc4n3)CC2)s1 [Example 103]
The IC50 of the first is 2-fold lower: 3 nM for the first, 6 nM for the second. The first is the more potent here.

`Cc1ccc(-c2nc3nc(N4CC[C@H]4C(=O)N4CCN(CC(F)(F)F)CC4)nc(N)n3n2)o1` [Example 220, (S)-(1-(7-amino-2-(5-methylfuran-2-yl)-[1,2,4]triazolo[1,5-a][1,3,5]triazin-5-yl)azetidin-2-yl)(4-(2,2,2-trifluoroethyl)piperazin-1-yl)methanone] and `Nc1nc(N2CCCC[C@H]2C(=O)N2CCN(CC(F)(F)C(F)F)CC2)nc2nc(-c3ccco3)nn12` [Example 279, (S)-(1-(7-amino-2-(furan-2-yl)-[1,2,4]triazolo[1,5-a][1,3,5]triazin-5-yl)piperidin-2-y1)(4-(2,2,3,3-tetrafluoropropyl)piperazin-1-yl)methanone] are within 1.5-fold of each other in IC50: 15 nM for the first, 14 nM for the second.

`Cc1ccc(-c2nc3nc(N4CCC[C@H]4C(=O)N4CCN(C5CCCCC5)CC4)nc(N)n3n2)o1` [Example 84, (S)-(1-(7-amino-2-(5-methylfuran-2-yl)-[1,2,4]triazolo[1,5-a][1,3,5]triazin-5-yl)pyrrolidin-2-yl)(4-cyclohexylpiperazin-1-yl)methanone] and `COC[C@H](Nc1nc(N)n2nc(-c3ccco3)nc2n1)C(=O)N1CCN(C2CCC(F)(F)CC2)CC1` [Example 398, (S)-2-((7-amino-2-(furan-2-yl)-[1,2,4]triazolo[1,5-a][1,3,5]triazin-5-yl)amino)-1-(4-(4,4-difluorocyclohexyl)piperazin-1-yl)-3-methoxypropan-1-one] are within 1.5-fold of each other in IC50: 14 nM for the first, 20 nM for the second.

Compared with `COC[C@H](Nc1nc(N)n2nc(-c3ccco3)nc2n1)C(=O)N1CCN(CC(C)(F)F)CC1` [Example 397, (S)-2-((7-amino-2-(furan-2-yl)-[1,2,4]triazolo[1,5-a][1,3,5]triazin-5-yl)amino)-1-(4-(2,2-difluoropropyl)piperazin-1-yl)-3-methoxypropan-1-one], `COC[C@H](Nc1nc(N)n2nc(-c3ccco3)nc2n1)C(=O)N1CCN(CC(C)(C)F)CC1` [Example 303, (S)-2-((7-amino-2-(furan-2-yl)-[1,2,4]triazolo[1,5-a][1,3,5]triazin-5-yl)amino)-1-(4-(2-fluoro-2-methylpropyl)piperazin-1-yl)-3-methoxypropan-1-one] is 2-fold lower in IC50: 12 nM for the first, 6 nM for the second.

First: CC(C)(F)CN1CCN(C(=O)[C@H](CO)Nc2nc(N)n3nc(-c4ccco4)nc3n2)CC1 [Example 232, (S)-2-((7-amino-2-(furan-2-yl)-[1,2,4]triazolo[1,5-a][1,3,5]triazin-5-yl)amino)-1-(4-(2-fluoro-2-methylpropyl)piperazin-1-yl)-3-hydroxypropan-1-one]
Second: CCCC[C@H](Nc1nc(N)n2nc(-c3ccco3)nc2n1)C(=O)N1CCN(CCCC)CC1 [Example 173, (S)-2-((7-amino-2-(furan-2-yl)-[1,2,4]triazolo[1,5-a][1,3,5]triazin-5-yl)amino)-1-(4-butylpiperazin-1-yl)hexan-1-one]
The IC50 of the first is 2.5-fold higher: 40 nM for the first, 16 nM for the second. The second is the more potent here.

For `CC(C)[C@H](Nc1nc(N)n2nc(-c3ccco3)nc2n1)C(=O)N1CCN(CC(F)F)CC1` [Example 355, (S)-2-((7-amino-2-(furan-2-yl)-[1,2,4]triazolo[1,5-a][1,3,5]triazin-5-yl)amino)-1-(4-(2,2-difluoroethyl)piperazin-1-yl)-3-methylbutan-1-one], the IC50 was 14 nM.
